In data set [1] the test system is SW620 cells (with RASG12V mutation). The data set is described as follows: Crystal violet cytotoxicity test (IC50) in KRASG12V positive cells. Type of data set: cell-based. The conditions noted are these: summary statement. The source says: IC50 (half-maximal inhibitory concentration) is the concentration value of a tested compound which inhibits biochemical and biological functions of cells in half of the tested population. Determining this indicator is extremely important for assessing the cytotoxicity of molecules with therapeutic potential.
The first step in developing the methodology for determining IC50 was to conduct density tests to determine the appropriate number of cells to use in cytotoxicity tests. The different content of bovine fetal serum in the culture medium was also investigated to rule out any potential impact on the reduction in cell count, regardless of the analyzed molecules.
(§1) As a research model, colon cancer and lung cancer cell lines (sensitive lines) were used, including SW620, SW480, and COR-L23, respectively, which are characterized by the KRASG12V gene mutation and lack of other alterations in genes belonging to the RAS protein signaling pathway, as well as a stable line of normal cells (mouse fibroblasts), which serve as a platform for evaluating the impact of tested compounds on non-cancer cells. Below is the result for one of the analyzed cell lines with the mutation. Similar differences in IC50 values compared to normal cells were obtained for the other cell lines mentioned above with the RASG12V mutation.
(§2) The effect of molecules on the biology of selected cell lines to assess their cytotoxicity using the IC50 indicator was carried out according to the protocol below: • 1. The cells of the tested lines were seeded in wells of a 96-well plate at specified densities. • 2. After seeding, the cells were subjected to a 24-hour incubation in medium with a 1% and 2.5% addition of serum (sensitive lines) or in medium with a 0.5% addition of serum (normal line). • 3. The cells were exposed to selected molecules at selected concentrations. The control was provided by the culture medium without any added compounds. Concentrations of the tested molecules [uM]: • □ NIH3T3: 500; 250; 125; 62,5; 31,25 • □ SW620: 60; 30; 15; 7,5; 3,75 • 4. After 72 hours of incubation, the culture medium was removed and the cells were washed twice with buffer saline solution (PBS). Then, the cells were incubated for 10 minutes with a 0.1% solution of crystal violet at room temperature (Merck Millipore). • 5. After 10 minutes, the crystal violet solution was removed and the wells of the 96-well plate were washed twice with PBS solution. • 4. 50% ice-cold acetic acid solution was added to each well and incubated again for 10 minutes at room temperature on a shaker at 650 rpm. • 5. Absorbance measurement was performed using a plate reader, at a wavelength of λ = 540 nm

Data set [2] has as its system NIH/3T3 cell line - immortalized mouse fibroblasts. Kind of data set: Crystal violet cytotoxicity test in normal cells. Type of data set: cell-based. Conditions: summary statement; normal cells NIH/3T3 and PER49.
Source text: To evaluate the toxicity of the tested compound on normal cells, the NIH/3T3 cell line - immortalized mouse fibroblasts and normal pericytes (PER49) were used.
as §1, §2

The test system of another data set is NCI-H1975. Kind of data set: Toxicity against cancer cells expressing wild type RAS. Type of data set: cell-based. The conditions noted are these: summary statement. How it is done: The results of in vitro analyses were presented in the examples. Commercially available cancer cell lines were used for the studies, including SW480, SW620, and COR-L23, showing endogenous expression of KRASG12V, as well as a cell line with exogenously introduced KRASG12V mutation (using methods of genetic engineering) - the DK-MGEGFRvIIIKRASG12V line. Additionally, the cancer cell line NCI- H1975, characterized by the expression of wild type RASWT proteins, was also analyzed.

A further data set deals with BALB/c mice. The data set is described as follows: Acute toxicity after oral administration (Acute Toxicity test TG425). Type of data set: in vivo. The conditions noted are these: female BALB/c mice, oral by gastric probe, 40 mg of substance in corn oil, three mice, observed two weeks. The source says:
The study was planned according to Acute Toxicity Test 425 (oral administration) - higher-lower-dose procedure, in accordance with the OECD regulation of October 3, 2008. The test procedure described in these guidelines is useful in minimizing the number of animals needed to estimate the acute toxicity after oral administration of potential drugs. In addition to the LD50 assessment and confidence intervals, the test allows for the observation of signs of toxicity. For this purpose, an experiment was agreed upon with the Local Ethics Committee for Animal Experimentation, using BALB/c mice. The TG425 method allows for the estimation of LD50 values with confidence intervals, and the results allow for the classification of substances according to the global harmonized system for the classification of chemicals that cause acute toxicity.
A sequential test, utilizing a maximum of 5 animals, was applied, which is known as the limit test. A test dose of either 2000 or uniquely 5000 mg/kg can be used. The testing procedures at 2000 and 5000 mg/kg differ slightly (see Sections 23-25 for the limit test at 2000 mg/kg and Sections 26-30 for the limit test at 5000 mg/kg). The selection of a sequential testing plan increases the statistical power, and a deliberate deviation from the limit test rejection procedure was made for compounds with an LD50 near the limit dose; i.e. committing an error on the side of caution. As with any limit test protocol, the probability of correct compound classification will decrease, as the actual LD50 value more closely resembles the limit dose.
• 1. Female Balb/c mice, which were 50-56 days postpartum, were used for the purposes of this experiment. • 2. Mice underwent a 1-week quarantine after being transported to the laboratory. • 3. The studied molecules (PER154A, PER160A, PER170A, PER176A) were suspended according to the TG425 protocol, i.e. 40 mg of substance in […] of laboratory corn oil and orally administered through a plastic gastro probe (used: 20ga (0.9 mm OD x 0.5 mm ID), 38 mm), which was suitable for the size of the animal (17-21 g). The mice were observed and weighed almost daily. • 4. Mouse housing conditions: up to 4 mice per cage; temperature: 23.2 - 23.40°C; humidity: 27.6 - 40.9% relative humidity. • 5. Two weeks later (time counted separately for each mouse), a resection was performed to analyze internal organs for any abnormalities.

In the case of `Cc1ccc(NC(=O)c2ccc3c(c2)C2C4CCC(C4)C2C(c2ccccc2)N3)cc1C` (centres unmarked) [PER170A], the “toxicity against cancer cells expressing KRASG12V” value in data set [1] is reported as “toxicity”. The “toxicity against normal cells” value in data set [2] was “no toxicity”. In addition, the “toxicity against cancer cells expressing normal RAS protein” value with NCI-H1975 is reported as “no toxicity”. For the same compound, in the data set on BALB/c mice, the “safety in acute oral toxicity test” value is recorded as “safe for mice”.

For the compound `O=C(Nc1ccc(Br)c(Cl)c1)c1ccc2c(c1)C1C3CCC(C3)C1C(c1ccccc1)N2` (centres unmarked) [PER176A], in data set [1], the “toxicity against cancer cells expressing KRASG12V” value was “toxicity”. Further, the “toxicity against normal cells” value in data set [2] is reported as “no toxicity”. Also, the “toxicity against cancer cells expressing normal RAS protein” value in the data set on NCI-H1975 was “no toxicity”. In the data set on BALB/c mice, the “safety in acute oral toxicity test” value is on record as “safe for mice”.
